Test results published in the NIST ThermoML archive (doi:10.1016/j.jct.2017.03.026).
Where “and” joins values, the source holds several entries; their conditions need not be identical. Equal values may be shown once. Numbers after ± are expanded uncertainties.

Assay: molar heat capacity at constant pressure
Settings: 101.33 kPa, Crystal, Small (less than 1 g) adiabatic calorimetry

O.O.O.O.O.O=S(=O)([O-])[O-].[Cu+2] [copper(II) sulfate pentahydrate]
Settings | molar heat capacity at constant pressure
4.261 K | 0.5156 ± 0.024 J/K/mol
4.305 K | 0.5483 ± 0.025 J/K/mol
4.311 K | 0.5046 ± 0.024 J/K/mol
4.335 K | 0.5159 ± 0.026 J/K/mol
4.395 K | 0.5368 ± 0.025 J/K/mol
4.524 K | 0.5196 ± 0.024 J/K/mol
4.539 K | 0.5173 ± 0.024 J/K/mol
4.569 K | 0.4829 ± 0.025 J/K/mol
4.583 K | 0.5241 ± 0.024 J/K/mol
4.777 K | 0.4969 ± 0.023 J/K/mol
4.798 K | 0.4984 ± 0.023 J/K/mol
4.823 K | 0.4929 ± 0.023 J/K/mol
4.824 K | 0.4432 ± 0.024 J/K/mol
4.978 K | 0.5029 ± 0.023 J/K/mol
5 K | 0.4962 ± 0.024 J/K/mol
5.069 K | 0.4964 ± 0.023 J/K/mol
5.082 K | 0.4427 ± 0.023 J/K/mol
5.104 K | 0.4944 ± 0.023 J/K/mol
5.177 K | 0.4896 ± 0.023 J/K/mol
5.342 K | 0.4946 ± 0.023 J/K/mol
5.372 K | 0.4889 ± 0.023 J/K/mol
5.378 K | 0.4929 ± 0.023 J/K/mol
5.56 K | 0.4939 ± 0.023 J/K/mol
5.621 K | 0.4969 ± 0.023 J/K/mol
5.651 K | 0.4969 ± 0.023 J/K/mol
5.749 K | 0.4906 ± 0.022 J/K/mol
5.9 K | 0.5111 ± 0.023 J/K/mol
5.914 K | 0.4479 ± 0.023 J/K/mol
5.925 K | 0.5016 ± 0.023 J/K/mol
5.937 K | 0.4989 ± 0.023 J/K/mol
6.172 K | 0.5019 ± 0.022 J/K/mol
6.291 K | 0.5248 ± 0.023 J/K/mol
6.303 K | 0.5186 ± 0.023 J/K/mol and 0.4587 ± 0.023 J/K/mol
6.448 K | 0.5358 ± 0.023 J/K/mol
6.726 K | 0.5553 ± 0.023 J/K/mol
6.774 K | 0.5665 ± 0.023 J/K/mol
6.778 K | 0.5585 ± 0.023 J/K/mol
6.783 K | 0.4881 ± 0.023 J/K/mol
7.002 K | 0.5855 ± 0.024 J/K/mol
7.249 K | 0.6135 ± 0.024 J/K/mol
7.254 K | 0.6117 ± 0.024 J/K/mol
7.273 K | 0.6282 ± 0.024 J/K/mol
7.547 K | 0.6634 ± 0.025 J/K/mol
7.713 K | 0.7001 ± 0.025 J/K/mol
7.723 K | 0.6939 ± 0.025 J/K/mol
7.725 K | 0.6355 ± 0.026 J/K/mol
7.824 K | 0.7166 ± 0.026 J/K/mol
8.096 K | 0.7788 ± 0.027 J/K/mol
8.182 K | 0.7853 ± 0.027 J/K/mol
8.189 K | 0.786 ± 0.027 J/K/mol
8.19 K | 0.7356 ± 0.028 J/K/mol
8.371 K | 0.8474 ± 0.028 J/K/mol
8.632 K | 0.9011 ± 0.029 J/K/mol
8.65 K | 0.9014 ± 0.029 J/K/mol and 0.8412 ± 0.03 J/K/mol
8.653 K | 0.8934 ± 0.028 J/K/mol
8.928 K | 0.968 ± 0.03 J/K/mol
9.09 K | 1.043 ± 0.031 J/K/mol
9.107 K | 0.9518 ± 0.032 J/K/mol
9.116 K | 1.028 ± 0.03 J/K/mol
9.204 K | 1.057 ± 0.031 J/K/mol
9.48 K | 1.134 ± 0.032 J/K/mol
9.555 K | 1.149 ± 0.032 J/K/mol
9.563 K | 1.103 ± 0.035 J/K/mol
9.583 K | 1.165 ± 0.033 J/K/mol
9.756 K | 1.2 ± 0.033 J/K/mol
10 K | 1.299 ± 0.035 J/K/mol
10.02 K | 1.297 ± 0.034 J/K/mol and 1.25 ± 0.038 J/K/mol
10.03 K | 1.306 ± 0.035 J/K/mol
10.05 K | 1.315 ± 0.035 J/K/mol
10.4 K | 1.456 ± 0.037 J/K/mol
10.7 K | 1.569 ± 0.039 J/K/mol
10.71 K | 1.536 ± 0.043 J/K/mol
10.77 K | 1.6 ± 0.039 J/K/mol
10.86 K | 1.634 ± 0.039 J/K/mol
11.32 K | 1.835 ± 0.042 J/K/mol
11.62 K | 1.99 ± 0.044 J/K/mol
11.63 K | 1.944 ± 0.051 J/K/mol
11.7 K | 2.014 ± 0.045 J/K/mol
11.78 K | 2.059 ± 0.045 J/K/mol
12.24 K | 2.283 ± 0.048 J/K/mol
12.54 K | 2.453 ± 0.05 J/K/mol
12.55 K | 2.432 ± 0.059 J/K/mol
12.62 K | 2.5 ± 0.051 J/K/mol
12.7 K | 2.533 ± 0.052 J/K/mol
13.16 K | 2.801 ± 0.055 J/K/mol
13.47 K | 3.01 ± 0.058 J/K/mol and 3.006 ± 0.069 J/K/mol
13.55 K | 3.048 ± 0.058 J/K/mol
13.62 K | 3.099 ± 0.059 J/K/mol
14.09 K | 3.404 ± 0.063 J/K/mol
14.24 K | 3.51 ± 0.064 J/K/mol
14.39 K | 3.63 ± 0.065 J/K/mol
14.4 K | 3.652 ± 0.079 J/K/mol
14.48 K | 3.676 ± 0.066 J/K/mol
14.55 K | 3.735 ± 0.066 J/K/mol
15 K | 4.062 ± 0.07 J/K/mol
15.33 K | 4.33 ± 0.073 J/K/mol and 4.316 ± 0.073 J/K/mol and 4.374 ± 0.09 J/K/mol
16.27 K | 5.102 ± 0.082 J/K/mol and 5.148 ± 0.1 J/K/mol
16.34 K | 5.147 ± 0.082 J/K/mol
17.21 K | 5.92 ± 0.09 J/K/mol
17.22 K | 5.985 ± 0.11 J/K/mol
17.34 K | 6.038 ± 0.091 J/K/mol
18.16 K | 6.788 ± 0.099 J/K/mol
18.17 K | 6.865 ± 0.13 J/K/mol
18.34 K | 6.974 ± 0.1 J/K/mol
19.12 K | 7.738 ± 0.11 J/K/mol and 7.803 ± 0.14 J/K/mol
19.34 K | 7.95 ± 0.11 J/K/mol
20 K | 8.662 ± 0.12 J/K/mol
20.07 K | 8.711 ± 0.12 J/K/mol
20.08 K | 8.781 ± 0.15 J/K/mol
20.34 K | 8.968 ± 0.12 J/K/mol
21.52 K | 10.37 ± 0.13 J/K/mol and 10.5 ± 0.17 J/K/mol
21.84 K | 10.73 ± 0.13 J/K/mol
22.86 K | 11.97 ± 0.14 J/K/mol
23.43 K | 12.81 ± 0.2 J/K/mol
23.44 K | 12.67 ± 0.15 J/K/mol
23.8 K | 13.12 ± 0.15 J/K/mol
23.86 K | 13.21 ± 0.15 J/K/mol
24.84 K | 14.42 ± 0.16 J/K/mol
25 K | 14.64 ± 0.16 J/K/mol
25.35 K | 15.41 ± 0.22 J/K/mol
25.49 K | 15.25 ± 0.16 J/K/mol
25.75 K | 15.84 ± 0.17 J/K/mol
25.81 K | 15.7 ± 0.17 J/K/mol
26.5 K | 16.59 ± 0.17 J/K/mol
26.79 K | 16.97 ± 0.17 J/K/mol
27.28 K | 18.19 ± 0.25 J/K/mol
27.48 K | 17.9 ± 0.18 J/K/mol
27.72 K | 18.24 ± 0.18 J/K/mol
27.77 K | 18.33 ± 0.18 J/K/mol
28.45 K | 19.31 ± 0.18 J/K/mol
28.75 K | 19.73 ± 0.19 J/K/mol
29.23 K | 20.9 ± 0.27 J/K/mol
29.43 K | 20.68 ± 0.19 J/K/mol
29.7 K | 21.26 ± 0.19 J/K/mol
29.73 K | 21.15 ± 0.19 J/K/mol
30 K | 21.51 ± 0.2 J/K/mol
30.41 K | 22.11 ± 0.21 J/K/mol
30.7 K | 22.53 ± 0.21 J/K/mol
31.22 K | 23.13 ± 0.29 J/K/mol
31.39 K | 23.59 ± 0.21 J/K/mol
31.68 K | 24.03 ± 0.22 J/K/mol and 23.15 ± 0.21 J/K/mol
32.37 K | 25.14 ± 0.22 J/K/mol
32.66 K | 25.56 ± 0.22 J/K/mol
33.19 K | 26.4 ± 0.32 J/K/mol
33.35 K | 26.55 ± 0.23 J/K/mol
33.65 K | 27.01 ± 0.23 J/K/mol
33.66 K | 26.86 ± 0.23 J/K/mol
34.34 K | 28.1 ± 0.24 J/K/mol
34.62 K | 28.57 ± 0.24 J/K/mol
35 K | 29.13 ± 0.25 J/K/mol
35.15 K | 29.64 ± 0.34 J/K/mol
35.31 K | 29.65 ± 0.24 J/K/mol
35.61 K | 30.07 ± 0.25 J/K/mol
35.64 K | 30.19 ± 0.25 J/K/mol
36.17 K | 31.27 ± 0.35 J/K/mol
36.26 K | 31.26 ± 0.25 J/K/mol
36.29 K | 31.18 ± 0.25 J/K/mol
36.59 K | 31.76 ± 0.25 J/K/mol
